Source: PubChem BioAssay AID330 (DTP/NCI, 2004)
Several values for one entry are separate records, joined by “and”; a condition that tells them apart may be missing. Equal values may be shown once. Inconclusive results and toxic doses are left out. Rule for the calls: active = survival T/C of 150% or more; inactive = T/C below 125% in these data.

Tested on: P388 leukemia ip, CD2F1 mice, survival T/C
Experiment: NCI In Vivo Anticancer Drug Screen. Data for tumor model P388 Leukemia (intraperitoneal) in CD2F1 (CDF1) mice
Conditions: endpoint: median survival time, higher = longer survival
Procedure, shortened: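 Mice carrying the transplanted tumor received test compound or vehicle. Survival was recorded in each group, and the value is the treated-group measurement divided by that of the vehicle-treated control group.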

[1] = dose: 50.0 mg/kg/injection, schedule: Q01DX005 (ip), vehicle: saline with Tween-80
[2] = dose: 100.0 mg/kg/injection, schedule: Q01DX005 (ip), vehicle: saline with Tween-80
[3] = dose: 200.0 mg/kg/injection, schedule: Q01DX005 (ip), vehicle: saline with Tween-80
[4] = dose: 60.0 mg/kg/injection, schedule: Q01DX005 (ip), vehicle: saline with Tween-80
[5] = dose: 120.0 mg/kg/injection, schedule: Q01DX005 (ip), vehicle: saline with Tween-80
[6] = dose: 240.0 mg/kg/injection, schedule: Q01DX005 (ip), vehicle: saline with Tween-80
[7] = dose: 25.0 mg/kg/injection, schedule: Q01DX009 (ip), vehicle: saline with Tween-80
[8] = dose: 50.0 mg/kg/injection, schedule: Q01DX009 (ip), vehicle: saline with Tween-80
[9] = dose: 100.0 mg/kg/injection, schedule: Q01DX009 (ip), vehicle: saline with Tween-80
[10] = dose: 50.0 mg/kg/injection, schedule: Q01DX009 (ip), vehicle: Klucel (hydroxypropylcellulose) (HPC)
[11] = dose: 50.0 mg/kg/injection, schedule: Q01DX009 (ip), vehicle: saline
[12] = dose: 50.0 mg/kg/injection, schedule: Q01DX005 (ip), vehicle: Klucel (hydroxypropylcellulose) (HPC)
[13] = dose: 100.0 mg/kg/injection, schedule: Q01DX005 (ip), vehicle: Klucel (hydroxypropylcellulose) (HPC)
[14] = dose: 200.0 mg/kg/injection, schedule: Q01DX005 (ip), vehicle: Klucel (hydroxypropylcellulose) (HPC)

Measured: T/C

O=[N+]([O-])c1c(Nc2ccccc2)n(-c2ccccc2)c2ccc(O)cc12
inactive: dose: 3.12 mg/kg/injection, schedule: Q01DX005 (ip), vehicle: saline with Tween-80 92 % of control | dose: 6.25 mg/kg/injection, schedule: Q01DX005 (ip), vehicle: saline with Tween-80 102 % of control | dose: 12.5 mg/kg/injection, schedule: Q01DX005 (ip), vehicle: saline with Tween-80 90 % of control and 92 % of control | [1] 86 % of control

CO/C(C)=C1/C(=O)O/C(=C/Nc2ccccc2)C1=O
inactive: [1] 107 % of control | [2] 107 % of control | [3] 96 % of control

NNC(=O)C1C2c3ccccc3C(c3ccccc32)C1C(=O)NN (stereo unspecified)
inactive: [4] 99 % of control | [5] 99 % of control | [6] 96 % of control

COc1ccc2nc3cc(Cl)ccc3c(NCCCNCCCCNCCCNc3c4ccc(Cl)cc4nc4ccc(OC)nc34)c2n1
inactive: dose: 0.93 mg/kg/injection, schedule: Q01DX005 (ip), vehicle: saline with Tween-80 100 % of control | dose: 1.87 mg/kg/injection, schedule: Q01DX005 (ip), vehicle: saline with Tween-80 106 % of control | dose: 3.75 mg/kg/injection, schedule: Q01DX005 (ip), vehicle: saline with Tween-80 121 % of control

CN(C)CCCO[Si](C)(c1ccccc1)c1ccc(F)cc1 (stereo unspecified)
inactive: dose: 12.5 mg/kg/injection, schedule: Q01DX009 (ip), vehicle: saline with Tween-80 105 % of control | [7] 101 % of control | [8] 110 % of control and 97 % of control | [9] 86 % of control

O=[N+]([O-])c1cccc(N=Cc2ccc(N(CCCl)CCCl)cc2)c1
inactive: dose: 50.0 mg/kg/injection, schedule: Q04DX003 (ip), vehicle: Klucel (hydroxypropylcellulose) (HPC) 106 % of control | dose: 100.0 mg/kg/injection, schedule: Q04DX003 (ip), vehicle: Klucel (hydroxypropylcellulose) (HPC) 104 % of control | dose: 200.0 mg/kg/injection, schedule: Q04DX003 (ip), vehicle: Klucel (hydroxypropylcellulose) (HPC) 100 % of control

Cc1s/c(=N/N=C2\C(=O)C=Cc3ccccc32)n(O)c1C
inactive: [10] 99 % of control | dose: 100.0 mg/kg/injection, schedule: Q01DX009 (ip), vehicle: Klucel (hydroxypropylcellulose) (HPC) 108 % of control | dose: 200.0 mg/kg/injection, schedule: Q01DX009 (ip), vehicle: Klucel (hydroxypropylcellulose) (HPC) 111 % of control

C[N+](C)(N)Cc1nc(-c2ccc(Cl)cc2)no1
inactive: [11] 98 % of control | dose: 100.0 mg/kg/injection, schedule: Q01DX009 (ip), vehicle: saline 93 % of control

CCOC(=O)CSc1sc(C(=O)OCC)c(N)c1C#N
inactive: [8] 87 % of control

OC1CCCSc2ccccc21 (stereo unspecified)
inactive: [7] 100 % of control and 95 % of control | dose: 50.0 mg/kg/injection, schedule: Q01DX009 (ip), vehicle: saline + alcohol 99 % of control | [8] 100 % of control and 97 % of control | dose: 100.0 mg/kg/injection, schedule: Q01DX009 (ip), vehicle: saline + alcohol 96 % of control | [9] 98 % of control | dose: 200.0 mg/kg/injection, schedule: Q01DX009 (ip), vehicle: saline + alcohol 105 % of control | dose: 200.0 mg/kg/injection, schedule: Q01DX009 (ip), vehicle: saline with Tween-80 118 % of control | dose: 400.0 mg/kg/injection, schedule: Q01DX009 (ip), vehicle: saline + alcohol 103 % of control

N#CC[n+]1ccc2ccccc2c1
inactive: dose: 12.5 mg/kg/injection, schedule: Q01DX009 (ip), vehicle: saline 105 % of control | dose: 25.0 mg/kg/injection, schedule: Q01DX009 (ip), vehicle: saline 99 % of control | [11] 101 % of control

CC1OC(OC2CCCc3c(O)c4c(c(O)c32)C(=O)c2ccccc2C4=O)CC(N)C1O (stereo unspecified)
inactive: dose: 1.25 mg/kg/injection, schedule: Q04DX002 (ip), vehicle: water 104 % of control and 106 % of control | dose: 2.5 mg/kg/injection, schedule: Q04DX002 (ip), vehicle: water 98 % of control and 111 % of control | dose: 5.0 mg/kg/injection, schedule: Q04DX002 (ip), vehicle: water 98 % of control and 106 % of control | dose: 10.0 mg/kg/injection, schedule: Q04DX002 (ip), vehicle: water 98 % of control and 106 % of control

COC(=O)c1nnn(-c2cccc(C(F)(F)F)c2)c1C(=O)c1ccc(Cl)c(Cl)c1
inactive: [4] 99 % of control | [5] 100 % of control | [6] 92 % of control

O=C(O)c1c[nH]c2cc(OCCOc3ccc(Br)cc3)ccc2c1=O
inactive: dose: 100.0 mg/kg/injection, schedule: Q04DX003 (ip), vehicle: saline with Tween-80 87 % of control | dose: 200.0 mg/kg/injection, schedule: Q04DX003 (ip), vehicle: saline with Tween-80 93 % of control | dose: 400.0 mg/kg/injection, schedule: Q04DX003 (ip), vehicle: saline with Tween-80 91 % of control

COC(=O)COC(=O)C1C(C(N)=O)N(CC(=O)OC)CCN1CC(=O)OC (stereo unspecified)
inactive: [1] 103 % of control | [2] 103 % of control | [3] 103 % of control

COC(=S)SSC(=S)NCC(C)NC(=S)SSC(=S)OC (stereo unspecified)
inactive: [12] 103 % of control | [13] 103 % of control | [14] 105 % of control

CSc1nc(NCc2ccc(Cl)cc2)c2[nH]c(C)nc2n1
inactive: dose: 0.2 mg/kg/injection, schedule: Q01DX009 (ip), vehicle: saline with Tween-80 98 % of control and 101 % of control | dose: 0.39 mg/kg/injection, schedule: Q01DX009 (ip), vehicle: saline with Tween-80 101 % of control and 94 % of control | dose: 0.78 mg/kg/injection, schedule: Q01DX009 (ip), vehicle: saline with Tween-80 106 % of control and 93 % of control | dose: 1.56 mg/kg/injection, schedule: Q01DX009 (ip), vehicle: saline with Tween-80 99 % of control and 95 % of control

Cc1c(CCl)cc([N+](=O)[O-])cc1CCl
inactive: dose: 6.25 mg/kg/injection, schedule: Q01DX009 (ip), vehicle: Klucel (hydroxypropylcellulose) (HPC) 99 % of control | dose: 12.5 mg/kg/injection, schedule: Q01DX009 (ip), vehicle: Klucel (hydroxypropylcellulose) (HPC) 112 % of control and 114 % of control (2×) | dose: 25.0 mg/kg/injection, schedule: Q01DX009 (ip), vehicle: Klucel (hydroxypropylcellulose) (HPC) 116 % of control and 117 % of control and 120 % of control | [10] 114 % of control and 117 % of control

Nc1nc2ncc([N+](=O)[O-])cc2c(=O)[nH]1
inactive: [1] 102 % of control | [2] 100 % of control

OCC1c2ccc(Cl)cc2Nc2ccc(Cl)cc21 (stereo unspecified)
inactive: dose: 100.0 mg/kg/injection, schedule: Q01DX001 (ip), vehicle: saline with Tween-80 104 % of control | dose: 200.0 mg/kg/injection, schedule: Q01DX001 (ip), vehicle: saline with Tween-80 95 % of control | dose: 400.0 mg/kg/injection, schedule: Q01DX001 (ip), vehicle: saline with Tween-80 100 % of control

NC(N)=N/N=C\c1ccnc2ccccc12
inactive: dose: 7.5 mg/kg/injection, schedule: Q01DX005 (ip), vehicle: saline 100 % of control | dose: 15.0 mg/kg/injection, schedule: Q01DX005 (ip), vehicle: saline 105 % of control | dose: 30.0 mg/kg/injection, schedule: Q01DX005 (ip), vehicle: saline 105 % of control | dose: 60.0 mg/kg/injection, schedule: Q01DX005 (ip), vehicle: saline 105 % of control

C=CCC(C(C)=O)C(=O)OC (stereo unspecified)
inactive: dose: 50.0 mg/kg/injection, schedule: Q01DX005 (ip), vehicle: saline 90 % of control | dose: 100.0 mg/kg/injection, schedule: Q01DX005 (ip), vehicle: saline 104 % of control | dose: 200.0 mg/kg/injection, schedule: Q01DX005 (ip), vehicle: saline 100 % of control

NOCc1cccc(CON)c1
inactive: [8] 91 % of control

OC1C=CC2C(CC1)C1(c3ccccc3)OC2(c2ccccc2)c2ccccc21 (stereo unspecified)
inactive: [12] 100 % of control | [13] 98 % of control | [14] 99 % of control

CC(=O)c1cc(-c2ccc3ccccc3c2)nc2ccccc12
inactive: [1] 96 % of control | [2] 94 % of control | [3] 100 % of control

O=c1[nH]c(=O)c2[nH]c(Br)nc2[nH]1
inactive: [12] 102 % of control | [13] 100 % of control | [14] 100 % of control

N#CC(C(=O)O)C(c1c(Cl)cccc1Cl)C(C#N)C(=O)O (stereo unspecified)
inactive: [1] 97 % of control | [2] 89 % of control

CCc1nc(N)nc(N)c1-c1ccc(OC)c(N=[N+]=[N-])c1
inactive: [4] 97 % of control | [5] 100 % of control | [6] 117 % of control

CC(=O)NCCc1ccc(OC(C)=O)c(OC(C)=O)c1
inactive: [1] 99 % of control | [2] 103 % of control | [3] 107 % of control
